What was measured:
SARS-CoV-2 variant D614G = assay type: cell-based
SARS-CoV-2 variants = assay: microbe, parasite or virus in culture; assay type: cell-based

In the case of `O=C(c1ccc(OCCN2CCCCC2)cc1)c1c(-c2ccc(O)cc2)sc2cc(O)ccc12` [Raloxifene, 1-[6-hydroxy-2-(4-hydroxyphenyl)benzo[b]thien-3-yl]-1-[4-[2-(1-piperidinyl)ethoxy]phenyl]methanone], the IC50 (SARS-CoV-2 variant D614G) is reported as 7.48 µM, the IC50 (SARS-CoV-2 variants; Severe acute respiratory syndrome coronavirus 2, Vero C1008, read-out: IC50 calculated on recovering of cell viability) is reported as 4.5 to 7.99 µM and the “recovery of viability in infected Vero E6 cells” value (SARS-CoV-2 variants; all the tested viral variants) is reported as “able to recover viability”.
